For test [1], the system named is λ-carrageenan pedal edema. Description: Carrageenan induced pedal edema. The format is in vivo, Lewis rats. The settings on record: rat, 3 hours after carrageenan. Here is the method:
Lewis rats (male, 9 weeks old, weighing about 250 g) were purchased from Seac Yoshitomi.
Rats were fasted from 18 hours before the start of the experiments. Dipropionylcyclopentenone, dihexanoylcyclopentenone, di-2-hexenoylcyclopentenone, diisobutyrylcyclopentenone or dibenzoylcyclopentenone dissolved in olive oil (Nacalai Tesque) was orally administered to 4 rats per group at 1 or 10 mg/10 ml/kg.
100 μl of 1% λ-carrageenan (Wako Pure Chemical Industries) suspension in saline (Otsuka Pharmaceutical) was injected into the sole of right paw of a rat 0.5 hour after the administration of test substance to induce pedal edema. The volume of the right foot of the rat was measured using an instrument for measuring pedal volume (Ugo Basile) 3 hours after the injection with carrageenan. The measurements were expressed as the rate of increase calculated based on the volume of the right foot of each rat measured before the administration with carrageenan.
FIG. 5 illustrate the relationship between the amount of cyclopentenone derivative administered and the rate of increase in edema in foot. The horizontal axis represents the dose […] and the vertical axis represents the rate of increase (%).

A further test addresses T1, topoisomerase II (Homo sapiens, UniProt P11388).
T1 construct: purchased TopoGEN
Description: Topoisomerase II inhibition, pBR322 DNA relaxation. Format: biochemical. The settings on record: 37° C., 30 minutes. Here is the method: (1) 2 μl of topoisomerase II (TopoGEN; 2 units/μl), 2 μl of 10-fold concentrated buffer [0.5 M Tris-HCl (pH 8.0), 1.2 M KCl, 0.1 M MgCl2, 2.5 mM adenosine triphosphate, 5 mM dithiothreitol], 2 μl of 0.1% bovine serum albumin (Takara Shuzo), 11 μl of distilled water and 2 μl of distilled water (control) or 2 μl of one of aqueous solutions of dipropionylcyclopentenone, diisobutyrylcyclopentenone, dibenzoylcyclopentenone, dihexanoylcyclopentenone, di-2-hexenoylcyclopentenone, dimethoxyacetylcyclopentenone, dimethylfumarylcyclopentenone or dimethylmaleylcyclopentenone at varying concentrations were mixed together. 1 μl of 0.25 μg/μl pBR322 DNA (Takara Shuzo) was added thereto. The resulting mixture was reacted at 37° C. After reacting for 30 minutes, 2 μl of an aqueous solution containing 1% sodium dodecyl sulfate, 50% glycerol and 0.02% Bromophenol Blue was added thereto to stop the reaction.
20 μl of the reaction mixture was applied to 1% agarose gel prepared using agarose L03 (Takara Shuzo) and TAE buffer [40 mM Tris, 5 mM sodium acetate, 1 mm ethylenediaminetetraacetic acid disodium salt (EDTA); adjusted to pH 7.8 using acetic acid] and electrophoresed in TAE buffer. After electrophoresis, the gel was soaked in a 1 μg/ml aqueous ethidium bromide solution. The gel was exposed to ultraviolet rays to visualize the electophoretic pattern of DNA.

Test [2] relates to mixed spleen lymphocytes (BALB/c and C57BL/6). Description: Mixed lymphocyte reaction, 3H-thymidine uptake. The format is cell-based, mouse. The settings on record: 1 μM. On the procedure:
(2) Spleens were taken out from a BALB/c mouse (male, 6 weeks old, purchased from Japan SLC) and a C57BL/6 mouse (male, 6 weeks old, purchased from Japan SLC) and spleen lymphocytes were obtained according to the method as described in Example 11-(1). The concentration of each of the cell suspensions was adjusted to 2×10^6 cell/ml, 100 μl portions from respective suspensions were mixed together and seeded into a 96-well microtiter plate. Dipropionylcyclopentenone at a varying concentration was added to the wells other than the control well, and the plate was incubated at 37° C. for 4 days in a CO2 incubator. After incubation, 1 μCi of ^3H-thymidine was added to each well, and the plate was incubated for additional 1 day. The uptake into cells was measured using a liquid scintillation counter.
FIG. 8 illustrates the relationship between the concentration of dipropionylcyclopentenone and the amount of ^3H-thymidine uptake. The horizontal axis represents the dipropionylcyclopentenone concentration (μM) and the vertical axis represents ^3H-thymidine uptake (CPM). The open bar represents the ^3H-thymidine uptake when cells from one of the lines were used independently. The shaded bar represents the ^3H-thymidine uptake when cells from both of the lines were mixed together.

Test [3] relates to delayed hypersensitivity pedal edema. Put plainly: Delayed hypersensitivity (DTH) with sheep erythrocytes. The format is in vivo, C57BL/6 mice. The settings on record: once a day for 3 days. Here is the method: C57BL/6 mice (male, 7 weeks old, weighing about 25 g) were purchased from Japan SLC and pre-bred for 1 week before using in experiments.
Sheep erythrocytes (Shimizu Laboratory Supplies) as raising antigens were washed three times with saline (Otsuka Pharmaceutical) and suspended in saline at a concentration of 1×10^9 cells/ml. 200 μl of the suspension was intraperitoneally injected into the mouse for sensitization with the antigen. 40 μl of similarly prepared antigen was injected to the sole of right paw 5 days after the sensitization for antigenic induction to induce pedal edema.
Dipropionylcyclopentenone dissolved in saline at a varying concentration was intraperitoneally or orally administered to 5 mice per group once a day for 3 days from the day of sensitization with the antigen. The volume of the right foot of the mouse was measured using an instrument for measuring pedal volume (Ugo Basile) 2 days after the antigenic induction and used as an index of DTH. The measurements were expressed as the rate of increase calculated according to the following equation based on the volume of the right foot of each mouse measured before the antigenic induction.
Rate of increase=(volume of right foot after antigenic induction−volume of right foot before antigenic induction)/volume of right foot before antigenic induction

In test [4] the test system is Ehrlich ascites carcinoma (EAC). Put plainly: Ascitic cancer EAC, prolongation of survival. The format is in vivo, ddY mouse. The settings on record: 5 successive days; for 30-day survival number: groups of 8 mice. On the procedure:
(3) The carcinostatic activities of dipropionylcyclopentenone and diisobutyrylcyclopentenone against various ascitic cancers were examined using two types of cancer cells, Ehrlich ascites carcinoma (EAC) and Meth A, administered intraperitoneally or orally at a varying dose.
Dipropionylcyclopentenone or diisobutyrylcyclopentenone was intraperitoneally or orally administered for 5 successive days from the day after the transplantation with cancer cells. Injectable distilled water was administered to a control group in a similar manner. Average days of survival, prolongation rate and 30-day survival number were calculated for groups each consisting of 8 mice.

Experimental findings from US6548543B1, “Remedies or preventives containing cyclopentenone compounds as the active ingredient” (Takara Shuzo Co., Ltd., priority 1998, dated 2003) are described below.

T1 sequence (P11388 whole entry): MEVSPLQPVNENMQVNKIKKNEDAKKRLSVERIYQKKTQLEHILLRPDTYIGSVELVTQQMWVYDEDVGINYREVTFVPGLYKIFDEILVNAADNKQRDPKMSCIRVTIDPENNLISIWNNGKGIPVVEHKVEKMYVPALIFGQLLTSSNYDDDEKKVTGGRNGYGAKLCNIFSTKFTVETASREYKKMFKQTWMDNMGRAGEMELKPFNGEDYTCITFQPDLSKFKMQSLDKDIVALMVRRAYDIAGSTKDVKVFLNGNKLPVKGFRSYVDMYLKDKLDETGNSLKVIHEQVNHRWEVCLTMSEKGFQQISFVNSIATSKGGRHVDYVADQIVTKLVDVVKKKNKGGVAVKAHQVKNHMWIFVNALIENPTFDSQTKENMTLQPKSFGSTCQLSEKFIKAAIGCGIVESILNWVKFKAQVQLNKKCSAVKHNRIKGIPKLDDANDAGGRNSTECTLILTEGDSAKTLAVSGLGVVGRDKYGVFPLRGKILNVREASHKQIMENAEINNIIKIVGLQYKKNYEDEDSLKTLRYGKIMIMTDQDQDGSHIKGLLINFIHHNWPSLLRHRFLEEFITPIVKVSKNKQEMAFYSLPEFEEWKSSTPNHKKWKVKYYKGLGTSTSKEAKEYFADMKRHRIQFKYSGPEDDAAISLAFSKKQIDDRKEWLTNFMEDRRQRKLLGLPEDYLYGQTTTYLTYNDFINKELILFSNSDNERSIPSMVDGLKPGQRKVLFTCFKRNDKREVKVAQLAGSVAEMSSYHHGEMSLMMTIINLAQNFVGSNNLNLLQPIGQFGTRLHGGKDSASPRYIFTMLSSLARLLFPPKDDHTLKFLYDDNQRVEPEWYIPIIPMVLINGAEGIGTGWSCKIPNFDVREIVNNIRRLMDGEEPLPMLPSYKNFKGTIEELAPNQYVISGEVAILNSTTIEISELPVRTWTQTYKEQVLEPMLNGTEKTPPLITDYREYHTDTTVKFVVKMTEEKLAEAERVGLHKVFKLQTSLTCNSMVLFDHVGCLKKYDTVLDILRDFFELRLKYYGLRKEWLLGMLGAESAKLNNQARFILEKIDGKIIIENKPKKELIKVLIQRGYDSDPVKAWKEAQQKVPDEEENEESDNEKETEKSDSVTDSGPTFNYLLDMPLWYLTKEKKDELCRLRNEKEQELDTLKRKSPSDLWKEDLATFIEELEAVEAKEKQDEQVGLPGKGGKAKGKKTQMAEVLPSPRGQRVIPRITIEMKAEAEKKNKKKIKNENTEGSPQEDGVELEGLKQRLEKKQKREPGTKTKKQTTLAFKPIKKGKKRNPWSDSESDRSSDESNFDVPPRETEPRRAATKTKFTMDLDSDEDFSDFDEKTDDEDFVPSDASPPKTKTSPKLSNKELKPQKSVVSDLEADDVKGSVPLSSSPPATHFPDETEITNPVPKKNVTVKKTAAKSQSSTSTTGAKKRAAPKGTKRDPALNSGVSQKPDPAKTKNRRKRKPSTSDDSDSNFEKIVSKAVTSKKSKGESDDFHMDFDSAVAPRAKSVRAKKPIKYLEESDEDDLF

As to `CCC(=O)OC1C=CC(=O)C1OC(=O)CC` (stereo not shown), the “Suppression of edema in foot (FIG. 5)” value in test [1] (1 mg/kg oral) was “Tendency to suppress the edema in the foot”; in test [1] (10 mg/kg oral), “significant suppression”. Also, on topoisomerase II, the “Concentration at which change of DNA from superhelical type to relaxed type was partially or completely inhibited” value was not below 0.1 µM. Also, the “Inhibition of mixed lymphocyte reaction (FIG. 8)” value in test [2] was “almost completely inhibited”. Besides, the “Suppression of edema in foot, DTH (FIG. 6)” value is reported as “Tendency to suppress the edema in the foot” in test [3] (1 mg/kg intraperitoneal), “significant suppression” in test [3] (10 mg/kg intraperitoneal) and “significant suppression” in test [3] (30 mg/kg oral). Further, the results for the “Average days of survival” value in test [4] (intraperitoneal 10 mg/kg) and in test [4] (oral 30 mg/kg) were 28.1 days and 24.1 days, respectively. The Prolongation rate in test [4] (intraperitoneal 10 mg/kg) is more than 225%; in test [4] (oral 30 mg/kg), more than 193%. Besides, the 30-day survival number in test [4] (intraperitoneal 10 mg/kg) was 6; in test [4] (oral 30 mg/kg), 4.
